Results as given in patent publication US20230263808A1 (UNIVERSITY OF FLORIDA RESEARCH FOUNDATION, INCORPORATED, priority 2020, published 2023).

Assays:
[1] = test system: C2C12 myotubes; assay: Protein degradation: chymotrypsin-like proteasomal activity in C2C12 myotubes; type: cell-based, mouse
Procedure: (§1) A) C2C12 myotubes were assayed for chymotrypsin-like proteasomal activity. […] C) Quantitation of the ICW in panel B. D) ICW for surface expression of Glut4 on L6 myotubes. E) ICW for insulin-induced incorporation of puromycin into C2C12 myotube surface proteins. F-G) High-content imaging and analysis of C2C12 myoblasts stained with a Mitotracker dye. H) Assay reproducibility from screening 22 compounds on two separate occasions. The Pearson correlation coefficient, r, and its associated p-value is indicated.
(§2) C2C12 myocytes were used in all assays, except in the Glut4 translocation assay where L6 rat myocytes were used. ICW, In-Cell Western. Also see Methods.
To avoid such effects on myogenesis, we switched myoblasts to differentiation media, and then on day 4, added 10 μM cytarabine, a chemotherapy agent that kills dividing cells, and then adding GCs on day 6 or 7 and completing assays in day 8 (FIG. 8).
Physiologically, the effects of GCs on protein balance and Glut4 translocation vary in vivo depending upon the stressor. For example, GCs mediate atrophy in response to fasting but not exercise. […] To assess protein degradation, we measured chymotrypsin-like proteasomal activity (FIG. 2, A). The activating phosphorylation of AKT at Thr308 (pAKT) was measured using a LI-COR In-Cell Western assay (FIG. 2, B and C). The rate-limiting step in insulin-mediated glucose uptake is the translocation of the glucose transporter, Glut4, to the surface membrane, which we also measured by In-Cell Western without permeabilizing the myotubes (FIG. 2, D). Surface Sensing of Translation (SUnSET) (Schmidt et al., Nat Methods 6, 275-277, 2009) assay was used to measure protein synthesis by In-Cell Western, following treatment of myotubes with a low dose of puromycin, which incorporates into translating proteins, but at a low enough level to provide a readout for global protein synthesis (FIG. 2, E). […]

[2] = test system: L6 myotubes; assay: Glut4 translocation to the myotube surface (In-Cell Western); type: cell-based, rat
Procedure: as §1, §2
Physiologically, the effects of GCs on protein balance and Glut4 translocation vary in vivo depending upon the stressor. For example, GCs mediate atrophy in response to fasting but not exercise. […] To assess protein degradation, we measured chymotrypsin-like proteasomal activity (FIG. 2, A). The activating phosphorylation of AKT at Thr308 (pAKT) was measured using a LI-COR In-Cell Western assay (FIG. 2, B and C). The rate-limiting step in insulin-mediated glucose uptake is the translocation of the glucose transporter, Glut4, to the surface membrane, which we also measured by In-Cell Western without permeabilizing the myotubes (FIG. 2, D). Surface Sensing of Translation (SUnSET) (Schmidt et al., Nat Methods 6, 275-277, 2009) assay was used to measure protein synthesis by In-Cell Western, following treatment of myotubes with a low dose of puromycin, which incorporates into translating proteins, but at a low enough level to provide a readout for global protein synthesis (FIG. 2, E). Lastly, we developed a high-content imaging assay in myoblasts stained with a MitoTracker dye, so that individual mitochondrial networks could be visualized with adequate resolution to quantitate area, segmentation, branching, and fluorescence intensity which is a measure of mitochondrial membrane potential (ψm).

With `C=CCOC1CC2(C)C(CCC2(O)C#CC)C2CCc3cc(C(=O)Nc4cccnc4C)ccc3C12` (centres unmarked) [SR11466] as the molecule, how does the “effect on protein degradation (proteasomal)” value [1] read?
Its value is “no effect”.

For `CC#CC1(O)CCC2C3CCc4cc(C(=O)Nc5cccnc5C)ccc4C3C(OCc3ccccc3Cl)CC21C` (centres unmarked) [SR16024], which “effect on Glut4 translocation” value [2] is on record?
The value was “no inhibition”.
